These results are taken from US20040224995A1 (University of North Texas Health Science Center at Fort …, priority 2003, published 2004).

In series [1] the test system is γ-glutamyl-cysteine synthetase (GCS) catalytic and regulatory subunits. The experiment in a line: Western blot of GCS subunits in HT-22 cells. The note with it: compound 24 h before glutamate or H2O2, also independent of glutamate. Type of series: cell-based, mouse. How it is done: Determining γ-glutamylcysteine synthetase (“GCS”) protein levels was determined using Western blotting analysis, as shown in FIGS. 28 and 29. Antibodies against the heavy (catalytic) and light (regulatory) subunits, GCSH and GCSL, respectively, were ordered from Santa Cruz Biotechnology, Santa Cruz, Calif. Anti-β-actin polyclonal antibody was obtained from Biomedical Technologies Inc. (Stoughton, Mass.). Cyclopentenone PGs treated and untreated HT-22, C6, and RGC-5 cells were homogenized in a buffer containing 20 mM HEPES, pH 7.4, 2 mM […], 1 mM EGTA, […], 2 mm DTE, and […] aprotonin. Cells were sonicated to disrupt cell membranes, and Triton X-100 was added to a final concentration of 0.05% to solubilize membrane bound proteins. Equal amounts of proteins, as determined by the Bradford method, were separated by SDS-PAGE and transferred to polyvinylidene fluoride membrane (Millipore, Bedford, Mass.) in a BiORad (Hercules, Calif.) trans-Blot electrophoresis apparatus at 100 V for 2 hr using Towbin's buffer [25 mm Tris, pH 8.3, 192 mM glycine, and 20% methanol]. […] Equal amounts of proteins, as determined by the Bradford method, were separated by SDS-PAGE and transferred to PVDF membrane. […] […]

The subject of series [2] is PPARγ. Conditions: Kliewer et al., 1995; cited from earlier work.
A short description of series [3]: Middle cerebral artery occlusion (MCAO) in ovariectomized female rats. The class given is in vivo, rat. Conditions: rats, doses given prior to MCA occlusion. The text has this: (§1) Evaluating the role of cyclopentenone PGs and TZD's has also been completed in vivo. […] Troglitazone reduced the resulting infarct size by about 50% compared to vehicle (corn oil treated animals). This effective protection from a transient focal ischemic event by troglitazone argues that selective PPARγ agonists may be useful neuroprotectants during neurodegenerative events (e.g. stroke).
(§2) As shown below, the results from our experiments comprise results that indicate potent neuroprotective TZD's, as were used in neuronal cell lines are also effective in an animal model. Although not wanting to be bound by theory, the rat is the appropriate animal model for assessing the effects of drugs on neuronal damage, as the compounds to be evaluated are intended for use in humans. […] Female Sprague Dawley rats were purchased from Harlan in Indianapolis, Ind. Rats were housed in pairs in hanging, stainless steel cages in a temperature-controlled rooms (25±1° C.) with a daily light cycle (on from 0700 to 1900 h daily). All rats were allowed free access to laboratory chow and tap water. All procedures performed on animals will were reviewed and approved by the University of North Texas Health Science Center Institutional Animal Care and Use Committee (“ACUC”).
(§3) The female Sprague Dawley rats (225-250 g BW) were bilaterally ovariectomized using a dorsal approach. Animals were anesthetized with ketamine ([…]) and xylazine (10 mg/kg). A small (1 cm) cut was made through the skin, fascia, and muscle. […] Percent ischemic lesion area was calculated. * indicates p<0.05 vs. respective control group. […]
(§4) Each group of animals was decapitated 24 h after MCAO. […] Slices were then fixed in a 10% formalin and photographed by a digital camera (Sony MVC-FD5), and the ischemic lesion area were determined for each slice using the Image-Pro Plus software (Media Cybernectics, Silver Spring, Md.). Percent ischemic lesion area was calculated as the sum of the ischemic lesion area for the five slices divided by the total cross sectional area of these five slices.

For series [4], the system named is ischemic lesion after MCAO. Described as above. Type of series: in vivo, rat.
Excerpt: as §1, §2, §3, §4

The structures appear in SMILES notation.

Usually EC50 stands for the concentration giving half of the maximal effect. For `CCCCC/C=C/C=C1/C(=O)C=C[C@@H]1C/C=C\CCCC(=O)O` [15d-PGJ2, 15-deoxy-Δ^12,14-PGJ2], in series [1], the “expression of catalytic (C) and regulatory (R) subunits of GCS” value was “upregulates”. In series [2], the EC50 was 7 µM.
In the case of `Cc1c(C)c2c(c(C)c1O)CCC(C)(COc1ccc(CC3SC(=O)NC3=O)cc1)O2` (centres unmarked) [troglitazone], the brain concentrations entry in series [3] is reported as “about 7 μM”. The “reduction of infarct size compared to vehicle” value in series [4] (rats treated prior to MCA occlusion, vehicle corn oil) is given as “about 50%”. For the same molecule, in series [4] (s.c. injection 12 h and 2 h before MCAO, 60 min occlusion, 24 h reperfusion), the “reduction of ischemic lesion area compared to control animals” value is reported as “about 50%”.
